Reference: US10226451B2, “Substituted bicyclic compounds as bromodomain inhibitors” (ZENITH EPIGENETICS LTD, priority 2013, dated 2019)

Key:
[1] = target: T1, Brd4 bromodomain 1 (BRD4(1)) (Homo sapiens, UniProt O60885); experiment: Inhibition of tetra-acetylated histone H4 binding to Brd4 bromodomain 1 (HTRF/FRET); details: tetra-acetylated histone H4 peptide, His-tagged bromodomain 200 nM, 2 h
T1 construct: made in house; host or cells: E. coli BL21(DE3)
Procedure: Proteins were cloned and overexpressed with a N-terminal 6×His tag, then purified by nickel affinity followed by size exclusion chromatography. Briefly, E. coli BL21(DE3) cells were transformed with a recombinant expression vector encoding N-terminally Nickel affinity tagged bromodomains from Brd2, Brd3, Brd4. Cell cultures were incubated at 37° C. with shaking to the appropriate density and induced overnight with IPTG. The supernatant of lysed cells was loaded onto Ni-IDA column for purification. Eluted protein was pooled, concentrated and further purified by size exclusion chromatography. Fractions representing monomeric protein were pooled, concentrated, aliquoted, and frozen at −80° C. for use in subsequent experiments.
Binding of tetra-acetylated histone H4 and BET bromodomains was confirmed by a Homogenous Time Resolved Fluorescence Resonance Energy Transfer (HTRF®) method. N-terminally His-tagged bromodomains (200 nM) and biotinylated tetra-acetylated histone H4 peptide (25-50 nM, Millipore) were incubated in the presence of Europium Cryptate-labeled streptavidin (Cisbio Cat. #610SAKLB) and XL665-labeled monoclonal anti-His antibody (Cisbio Cat. #61HISXLB) in a white 96 well microtiter plate (Greiner). For inhibition assays, serially diluted test compound was added to these reactions in a 0.2% final concentration of DMSO. Duplicate wells were used for each concentration tested. Final buffer concentrations were 30 mM HEPES pH 7.4, 30 mM NaCl, 0.3 mM CHAPS, 20 mM phosphate pH 7.0, 320 mM KF, 0.08% BSA. After a 2 h incubation at room temperature, fluorescence was measured at 665 and 620 nm with a SynergyH4 plate reader (Biotek). The binding inhibitory activity was shown by a decrease in 665 nm relative to 620 nm fluorescence. IC50 values were determined from a dose response curve.

[2] = tested on: c-myc in Human AML MV4-11 cells; experiment: Inhibition of c-MYC expression (mRNA, real-time PCR) in MV4-11 cells; type: cell-based; details: 3 h, mRNA by real-time PCR
Procedure: MV4-11 cells (CRL-9591) were plated at a density of 2.5×10^4 cells per well in 96 well U-bottom plates and treated with increasing concentrations of test compound or DMSO (0.1%) in IMDM media containing 10% FBS and penicillin/streptomycin, and incubated for 3 h at 37° C. Triplicate wells were used for each concentration. Cells were pelleted by centrifugation and harvested using the mRNA Catcher PLUS kit according to manufacturer's instructions. The eluted mRNA isolated was then used in a one-step quantitative real-time PCR reaction, using components of the RNA UltraSense™ One-Step Kit (Life Technologies) together with Applied Biosystems TaqMan® primer-probes for cMYC and Cyclophilin. Real-time PCR plates were run on a ViiA™7 real time PCR machine (Applied Biosystems), data was analyzed, normalizing the Ct values for hMYC to an internal control, prior to determining the fold expression of each sample, relative to the control.

[3] = tested on: Human AML MV-4-11 cells; experiment: Inhibition of cell proliferation in MV4-11 cells (CellTiter Aqueous One); type: cell-based; details: 72 h
Procedure: In this example, cell titer in MV4-11 cells were quantitated to measure the inhibition of proliferation when treated with a compound of the present disclosure.
MV4-11 cells (CRL-9591) were plated at a density of 5×10^4 cells per well in 96 well flat bottom plates and treated with increasing concentrations of test compound or DMSO (0.1%) in IMDM media containing 10% FBS and penicillin/streptomycin. Triplicate wells were used for each concentration and a well containing only media was used as a control. Plates were incubated at 37° C., 5% CO2 for 72 h before adding 20 μL of the CellTiter Aqueous One Solution (Promega) to each well and incubated at 37° C., 5% CO2 for an additional 3-4 h. The absorbance was read at 490 nm in a spectrophotometer and the percentage of cell titer relative to DMSO-treated cells was calculated after correcting for background by subtracting the blank well's signal. IC50 values were calculated using the Graph Pad Prism software.

[4] = tested on: hIL-6 mRNA in U937 cells; experiment: Inhibition of hIL-6 mRNA transcription in LPS-stimulated U937 cells; type: cell-based; details: Homo sapiens, U-937, PMA-differentiated U937 cells, LPS 1 ug/mL, 3 h, read-out: IL-6 activity
Procedure: In this example, hIL-6 mRNA in tissue culture cells were quantitated to measure the transcriptional inhibition of hIL-6 when treated with a compound of the present disclosure.
Human leukemic monocyte lymphoma U937 cells (CRL-1593.2) were plated at a density of 3.2×10^4 cells per well in a 96-well plate in 100 μL RPMI-1640 containing 10% FBS and penicillin/streptomycin, and differentiated into macrophages for 3 days in 60 ng/mL PMA ([…]) at 37° C. in 5% CO2 prior to the addition of compound. The cells were pretreated for 1 h with increasing concentrations of test compound in 0.1% DMSO prior to stimulation with 1 ug/mL lipopolysaccharide from Escherichia coli. Triplicate wells were used for each concentration. The cells were incubated at 37° C., 5% CO2 for 3 h before the cells were harvested. At time of harvest, media was removed and cells were rinsed in 200 μL PBS. Cells were harvested using the mRNA Catcher PLUS kit according to manufacturer's instructions. The eluted mRNA was then used in a one-step quantitative real-time PCR reaction using components of the RNA UltraSense™ One-Step Kit (Life Technologies) together with Applied Biosystems TaqMan® primer-probes for hIL-6 and Cyclophilin. Real-time PCR plates were run on a ViiA™7 real time PCR machine (Applied Biosystems), data was analyzed, normalizing the Ct values for hIL-6 to an internal control, prior to determining the fold expression of each sample, relative to the control.

[5] = tested on: hIL-17 mRNA in human peripheral blood mononuclear cells; experiment: Inhibition of hIL-17 mRNA transcription in OKT3-stimulated PBMC; type: cell-based; details: OKT3 antibody, 6 h, read-out: IL-17 activity
Procedure: In this example, hIL-17 mRNA in human peripheral blood mononuclear cells were quantitated to measure the transcriptional inhibition of hIL-17 when treated with a compound of the present disclosure.
Human peripheral blood mononuclear cells were plated (2.0×10^5 cells per well) in a 96-well plate in 45 μL OpTimizer T Cell expansion media (Life Technologies) containing 20 ng/ml IL-2 and penicillin/streptomycin. The cells were treated with increasing concentrations of the test compound or DMSO (0.1%), and incubated at 37° C., 5% CO2 for 1 h before addition of 10× stock OKT3 antibody at 10 ug/ml in media. Triplicate wells were used for each concentration. Cells were incubated at 37° C., 5% CO2 for 6 h before the cells were harvested. At time of harvest, cells were pelleted by centrifugation at 800 rpm for 5 min. Cells were harvested using the mRNA Catcher PLUS kit according to manufacturer's instructions. The eluted mRNA was then used in a one-step quantitative real-time PCR reaction, using components of the RNA UltraSense™ One-Step Kit (Life Technologies) together with Applied Biosystems TaqMan® primer-probes for hIL-17 and Cyclophilin. Real-time PCR plates were run on a ViiA™7 real time PCR machine (Applied Biosystems), data was analyzed, normalizing the Ct values for hIL-17 to an internal control, prior to determining the fold induction of each unknown sample, relative to the control.

| IC50 [1] | IC50 [2] | IC50 [3] | IC50 [4] | IC50 [5] | SMILES |
| --- | --- | --- | --- | --- | --- |
| ≤ 300 nM | ≤ 300 nM | ≤ 300 nM | ≤ 300 nM | ≤ 300 nM | Cc1n[nH]c(C)c1-c1cc(-c2c(C)noc2C)cc2[nH]c(=O)n(C)c12 [Example Compound 21, 7-(3,5-dimethyl-1H-pyrazol-4-yl)-5-(3,5-dimethylisoxazol-4-yl)-1-methyl-1H-benzo[d]imidazol-2(3H)-one] |
| ≤ 300 nM | ≤ 300 nM | ≤ 300 nM | ≤ 300 nM | ≤ 300 nM | Cc1noc(C)c1-c1cc(-c2c(C)nn(C)c2C)c2[nH]c(=O)[nH]c2c1 [Example Compound 22, 6-(3,5-dimethylisoxazol-4-yl)-4-(1,3,5-trimethyl-1H-pyrazol-4-yl)-1H-benzo[d]imidazol-2(3H)-one] |
| ≤ 300 nM | 300 to 3000 nM | 300 to 3000 nM | 300 to 3000 nM | 300 to 3000 nM | Cc1noc(CO)c1-c1cc(-c2c(C)nn(C)c2C)c2c(c1)[nH]c(=O)n2C [Example Compound 28, 5-(5-(hydroxymethyl)-3-methylisoxazol-4-yl)-1-methyl-7-(1,3,5-trimethyl-1H-pyrazol-4-yl)-1H-benzo[d]imidazol-2(3H)-one] |
| ≤ 300 nM | ≤ 300 nM | ≤ 300 nM | ≤ 300 nM | ≤ 300 nM | Cc1noc(C)c1-c1cc(-c2cccc(C(N)=O)c2C)c2c(c1)[nH]c(=O)n2C [Example Compound 30, 3-(6-(3,5-dimethylisoxazol-4-yl)-3-methyl-2-oxo-2,3-dihydro-1H-benzo[d]imidazol-4-yl)-2-methylbenzamide] |
| 300 to 3000 nM | 300 to 3000 nM | 3000 to 30000 nM | 300 to 3000 nM | – | Cc1nc(C)c(-c2cc(-c3c(C)noc3C)cc3[nH]c(=O)n(C)c23)s1 [Example Compound 44, 5-(3,5-dimethylisoxazol-4-yl)-7-(2,4-dimethylthiazol-5-yl)-1-methyl-1H-benzo[d]imidazol-2(3H)-one] |
| 300 to 3000 nM | ≤ 300 nM | 300 to 3000 nM | 300 to 3000 nM | – | COc1nc(C)ccc1-c1cc(-c2c(C)noc2C)cc2[nH]c(=O)n(C)c12 [Example Compound 45, 5-(3,5-dimethylisoxazol-4-yl)-7-(2-methoxy-6-methylpyridin-3-yl)-1-methyl-1H-benzo[d]imidazol-2(3H)-one] |

The remaining lines, values behind:

| SMILES | IC50 [1] | IC50 [2] | IC50 [3] | IC50 [4] | IC50 [5] |
| --- | --- | --- | --- | --- | --- |
| Cc1noc(C)c1-c1cc(-c2c(C)noc2C)c2c(c1)[nH]c(=O)n2C [Example Compound 2, 5,7-bis(3,5-dimethylisoxazol-4-yl)-1-methyl-1H-benzo[d]imidazol-2(3H)-one] | ≤ 300 nM | ≤ 300 nM | 300 to 3000 nM | ≤ 300 nM | ≤ 300 nM |
| Cc1noc(C)c1-c1cc(-c2ccccc2C(F)(F)F)c2c(c1)[nH]c(=O)n2C [Example Compound 5, 5-(3,5-dimethylisoxazol-4-yl)-1-methyl-7-(2-(trifluoromethyl)phenyl)-1H-benzo[d]imidazol-2(3H)-one] | ≤ 300 nM | ≤ 300 nM | ≤ 300 nM | ≤ 300 nM | 300 to 3000 nM |
| Cc1cnsc1-c1cc(-c2c(C)noc2C)cc2[nH]c(=O)n(C)c12 [Example Compound 10, 5-(3,5-dimethylisoxazol-4-yl)-1-methyl-7-(4-methylisothiazol-5-yl)-1H-benzo[d]imidazol-2(3H)-one] | ≤ 300 nM | ≤ 300 nM | ≤ 300 nM | ≤ 300 nM | ≤ 300 nM |
| Cc1noc(C)c1-c1cc(-c2ccc(F)cc2C(F)(F)F)c2c(c1)[nH]c(=O)n2C [Example Compound 11, 5-(3,5-dimethylisoxazol-4-yl)-7-(4-fluoro-2-(trifluoromethyl)phenyl)-1-methyl-1H-benzo[d]imidazol-2(3H)-one] | 300 to 3000 nM | 300 to 3000 nM | 300 to 3000 nM | 300 to 3000 nM | ≤ 300 nM |
| COc1ccc(F)cc1-c1cc(-c2c(C)noc2C)cc2[nH]c(=O)n(C)c12 [Example Compound 18, 5-(3,5-dimethylisoxazol-4-yl)-7-(5-fluoro-2-methoxyphenyl)-1-methyl-1H-benzo[d]imidazol-2(3H)-one] | ≤ 300 nM | 300 to 3000 nM | 300 to 3000 nM | ≤ 300 nM | ≤ 300 nM |
| Cc1nc(N)ccc1-c1cc(-c2c(C)noc2C)cc2[nH]c(=O)n(C)c12 [Example Compound 20, 7-(6-amino-2-methylpyridin-3-yl)-5-(3,5-dimethylisoxazol-4-yl)-1-methyl-1H-benzo[d]imidazol-2(3H)-one] | ≤ 300 nM | 300 to 3000 nM | ≤ 300 nM | ≤ 300 nM | 300 to 3000 nM |
